Data: patent US20260224503A1, “METHOD FOR PRODUCING PARTICLE, AND PARTICLE PRODUCED BY THE METHOD AND MEDICAMENT” (Ricoh Company, Ltd., priority 2018, published 2026)

How the values were obtained:
[1] = Dissolution of diclofenac, dissolution test second liquid (pH 6.8); format: physicochemical; details: for Diclofenac concentration pH 6.8: 2 mg diclofenac, 37 degrees Celsius, 50 rpm
Procedure: (§1) Specifically, The Japanese Pharmacopoeia dissolution test first solution (1,000 mL of a liquid prepared by dissolving 2.0 g of sodium chloride and 7.0 mL of hydrochloric acid in water, pH 1.2) and dissolution test second solution (50 mL of phosphate buffer solution, pH 6.8 (a liquid prepared by mixing water with a liquid, which had been prepared by dissolving 3.4 g of potassium dihydrogen phosphate and 3.55 g of anhydrous disodium hydrogen phosphate in water to give 1,000 mL, at the mixing ratio of 1:1, pH 6.8)) were used as the test liquids, and the test was performed at 37±0.5 degrees Celsius and at the rotational speed of 50 rpm.

[2] = Dissolution of diclofenac, dissolution test first liquid (pH 1.2); format: physicochemical
Procedure: as §1

O=C(O)Cc1ccccc1Nc1c(Cl)cccc1Cl [diclofenac bulk powder, diclofenac]
Diclofenac concentration pH 6.8 ([1]; collection time 0 min): 0 μg/mL | Diclofenac concentration pH 6.8 ([1]; collection time 10 min): 20.92 ± 0.66 μg/mL | Diclofenac concentration pH 6.8 ([1]; collection time 20 min): 19.83 ± 0.74 μg/mL | Diclofenac concentration pH 6.8 ([1]; collection time 30 min): 20.07 ± 0.59 μg/mL | Diclofenac concentration pH 6.8 ([1]; collection time 40 min): 19.97 ± 0.22 μg/mL | Diclofenac concentration pH 6.8 ([1]; collection time 60 min): 20.42 ± 0.46 μg/mL | Diclofenac concentration pH 6.8 ([1]; collection time 90 min): 20.21 ± 0.54 μg/mL | Diclofenac concentration pH 6.8 ([1]; collection time 120 min): 20.45 ± 0.69 μg/mL | dissolution of diclofenac, in words ([1]; dissolution test second liquid (pH 6.8)): sustained release | dissolution of diclofenac, in words [2]: prompt elusion
